Patent publication US4939175A, “Use of N,N-dimethyl-1-[1-(4-chlorophenyl)cyclobutyl]-3-methylbutylamine” (priority 1988, dated 1990)

System: memory defect artificially induced by electroconvulsive shock in mice
Test: Memory defect artificially induced by electroconvulsive shock in mice (step-through test)
Assay type: in vivo, C 57 BL/6 male mice
Conditions: ECS +; for Number of mice showing latency longer than 300 seconds: 1 hour before testing trial, 10 mice; for Amnestic syndrome rate: control ECS + 80, ECS - 40
Procedure: […]. The test was carried out by using a box divided into two rooms (light and dark). The dark room (23.5 cm in height, 12 cm in width and 24 cm in length) was surrounded by black inner walls and provided with a stainless steel bar on the floor to give the mouse an electric shock. The light room (triangular in shape with 15 cm in height, 13 cm in bottom side length and 12 cm in oblique-side length) was surrounded by transparent walls except for the partition wall, provided with a guillotine door (5 cm in height and 3 cm in width) at the center of the partition wall, and illuminated with a 100 Watt electric bulb at a position of 50 cm above the floor.
The test was carried out according to the procedures as follows:
After the mouse was put in the light room, the guillotine door was opened. When the limbs of the mouse entered into the dark room, the door was closed. After keeping the mouse for 10 seconds in the dark room, it was brought back to the home cage.
The mouse was put in the light room at the time of 30 minutes after the taming trial, and then the guillotine door was opened. When the limbs of the mouse entered into the dark room, the door was closed and 0.4 mA of electric shock was applied to the limbs of the mouse for 3 seconds. Then, the mouse was brought back to the home cage.
The mouse was put in the light room at the time of 24 hours after the acquisition trial, and then the guillotine door was opened.
Electroconvulsive shock (30 mA, 0.5 second) was applied to the mouse at its ears immediately after the acquisition trial, which caused tetany on the mouse. The mice, which survived after the righting reflex had disappeared,were subjected to the testing trial 24 hours later.
The test compound was dissolved in distilled water, and the solution was orally administered, in a dose shown in Table 1 to each group consisting of 10 heads at the time of one hour before the testing trial.
The testing trial (3) was conducted at one hour after the test compound administration, and the reaction latency was examined for each test mouse. The obtained results are shown in Table 1, and Amnestic syndrome rate (%) is expressed as follows: [formula]

## CC(C)CC(N(C)C)C1(c2ccc(Cl)cc2)CCC1.Cl (centres unmarked) [Test compound, N,N-dimethyl-1-[1-(4-chlorophenyl)cyclobutyl]3-methylbutylamine hydrochloride]
0.3 mg/kg oral
  Number of mice showing latency longer than 300 seconds: 4
  Amnestic syndrome rate: 60%
1.0 mg/kg oral
  Number of mice showing latency longer than 300 seconds: 3
  Amnestic syndrome rate: 70%
3.0 mg/kg oral
  Number of mice showing latency longer than 300 seconds: 7
  Amnestic syndrome rate: 30%
10.0 mg/kg oral
  Number of mice showing latency longer than 300 seconds: 9
  Amnestic syndrome rate: 10%
